Measured values published in ChEMBL document CHEMBL1201862, “PubChem BioAssay data set” (2004).
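Where inhibition never reached the appropriate level, the endpoint shown equals the highest concentration tested. Otherwise, values were interpolated linearly from a five-concentration, 48-hour dose response in 96-well plates. Abbreviation: GI50, concentration required for 50% inhibition of growth.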 Activity calls are given as the source filed them. Cut-off read from the data, not from the text of the source: active = GI50 up to about 1.1 µM and inactive = higher.

Experiments:
Assay in all cases: NCI tumour cell line growth inhibition, 48 h
[1] = system: 786-0
[2] = system: BT-549
[3] = system: COLO 205
[4] = system: HOP-92
[5] = system: HT-29
[6] = system: Hs-578T
[7] = system: IGROV-1
[8] = system: K562
[9] = system: MDA-N
[10] = system: NCI/ADR-RES
[11] = system: OVCAR-4
[12] = system: PC-3
[13] = system: SF-268
[14] = system: SF-539
[15] = system: SK-MEL-28
[16] = system: SK-MEL-2
[17] = system: SN12C
[18] = system: SW-620

Measured: GI50

CC(C)(CO)CNc1nc(N)nc(Cl)c1/C=N/O
inactive: [1] 36.7 µM | [2] 23.6 µM | [3] 62.7 µM | [4] 19.7 µM | [5] 42.1 µM | [6] 27 µM | [7] 13 µM | [8] 13.9 µM | [9] 41.2 µM | [10] 41.6 µM | [11] 34 µM | [12] 49.5 µM | [13] 8.91 µM | [14] 30.6 µM | [15] 48.4 µM | [16] 39.7 µM | [17] 72.4 µM | [18] 82.6 µM

Cc1cccc(Nc2nn3c(=O)c4c5c(sc4nc3s2)CCCC5)c1
inactive: [1] 45.9 µM | [2] 25.8 µM | [3] 3.69 µM | [4] 26.4 µM | [5] 10.4 µM | [6] 6.04 µM | [7] 43.4 µM | [8] 5.09 µM | [9] 15 µM | [10] 11.1 µM | [11] 16 µM | [12] 38.7 µM | [13] 3.36 µM | [14] > 100 µM | [15] > 100 µM | [16] > 100 µM | [17] 66.7 µM | [18] 91.2 µM

COC(=O)c1ccc(Cc2cc(Cc3ccc(C(=O)OC)cc3)cc(Cc3ccc(C(=O)OC)cc3)c2)cc1
inactive: [1] > 25 µM | [2] > 25 µM | [4] > 25 µM | [5] > 25 µM | [6] > 25 µM | [7] > 25 µM | [8] > 25 µM | [9] > 25 µM | [10] > 25 µM | [11] 16.5 µM | [12] > 25 µM | [13] > 25 µM | [14] > 25 µM | [15] > 25 µM | [16] > 25 µM | [17] > 25 µM | [18] > 25 µM

c1ccc2sc(C3(N4CCCCC4)CCCCCC3)cc2c1
inactive: [1] 20.9 µM | [2] 24.7 µM | [3] 16.6 µM | [4] 22.1 µM | [5] 14.8 µM | [6] 18.9 µM | [7] 23.4 µM | [8] 16.4 µM | [9] 34.9 µM | [10] 20.5 µM | [11] 25.8 µM | [12] 15.5 µM | [13] 25.4 µM | [14] 21 µM | [15] 4.62 µM | [16] 25.9 µM | [17] 20.4 µM | [18] 12 µM

Oc1ccc(/C=N/CC2CCCN3CCCCC23)cc1 (stereo not given)
inactive: [1] 17.9 µM | [2] 21.3 µM | [3] 27.6 µM | [4] 24.2 µM | [5] 16.6 µM | [6] 33.1 µM | [7] 24.2 µM | [8] 43.3 µM | [9] 18.4 µM | [10] 46.8 µM | [11] 17.8 µM | [12] 26.4 µM | [13] 24.5 µM | [14] 62.1 µM | [15] 22.5 µM | [16] 19.5 µM | [17] 19.1 µM

C=C(C)C(=O)O[C@H]1C[C@@]23O[C@@H]2CCC(=C[C@H]2OC(=O)C(=C)[C@H]12)COC3O (stereo not given in full)
inactive: [1] 35.3 µM | [2] 37.1 µM | [3] 21.2 µM | [4] 21.9 µM | [5] 57.5 µM | [6] > 100 µM | [7] > 100 µM | [8] 20.2 µM | [9] 49.2 µM | [10] 44.6 µM | [11] > 100 µM | [12] > 100 µM | [13] > 100 µM | [14] > 100 µM | [16] 70.3 µM | [17] 49 µM | [18] 17.9 µM
